Laboratory results published in the NIST ThermoML archive (doi:10.1016/j.jct.2005.04.005).

Experiment: mn = molality of the nth substance listed, in mol/kg
Conditions: 101 kPa, Liquid

C1COCCOCCOCCOCCOCCO1 [1,4,7,10,13,16-hexaoxacyclooctadecane] + O
Conditions | mass density, 293.15 K [kg/m3] | mass density, 295.15 K [kg/m3] | mass density, 297.15 K [kg/m3] | mass density, 298.15 K [kg/m3] | mass density, 299.15 K [kg/m3] | mass density, 301.15 K [kg/m3] | mass density, 303.15 K [kg/m3] | mass density, 308.15 K [kg/m3] | mass density, 313.15 K [kg/m3] | speed of sound, 298.15 K [m/s]
m1 = 0.0001 | – | – | – | 997.047 | – | – | – | – | – | –
m1 = 0.09578 | 1002.26 | 1001.8 | 1001.29 | 1000.98 | 1000.71 | 1000.12 | 999.519 | 997.836 | 995.959 | –
m1 = 0.0958 | – | – | – | 1000.98 | – | – | – | – | – | 1512.5
m1 = 0.1953 | 1006.34 | 1005.85 | 1005.3 | 1004.95 | 1004.66 | 1004.02 | 1003.4 | 1001.65 | 999.701 | 1527.2
m1 = 0.4197 | 1015.08 | 1014.51 | 1013.88 | 1013.44 | 1013.12 | 1012.39 | 1011.69 | 1009.76 | 1007.65 | 1557.3
m1 = 0.5091 | 1018.38 | 1017.79 | 1017.12 | 1016.66 | 1016.33 | 1015.56 | 1014.82 | 1012.82 | 1010.65 | 1568.3
m1 = 0.6046 | 1021.8 | 1021.17 | 1020.48 | 1019.99 | 1019.64 | 1018.84 | 1018.06 | 1015.99 | 1013.74 | 1579.6
m1 = 0.7192 | 1025.77 | 1025.1 | 1024.37 | 1023.86 | 1023.49 | 1022.65 | 1021.82 | 1019.66 | 1017.33 | 1592.7
m1 = 0.8244 | 1029.28 | 1028.57 | 1027.8 | 1027.28 | 1026.89 | 1026.01 | 1025.14 | 1022.9 | 1020.49 | 1604.2
m1 = 0.9881 | 1034.49 | 1033.73 | 1032.91 | 1032.37 | 1031.95 | 1031.02 | 1030.1 | 1027.73 | 1025.21 | 1621.4
m1 = 1.13 | 1038.8 | 1037.98 | 1037.12 | 1036.57 | 1036.13 | 1035.15 | 1034.18 | 1031.7 | 1029.09 | 1635.5
m1 = 1.296 | 1043.56 | 1042.68 | 1041.78 | 1041.22 | 1040.75 | 1039.72 | 1038.71 | 1036.12 | 1033.4 | 1651.2
m1 = 1.484 | 1048.63 | 1047.68 | 1046.73 | 1046.16 | 1045.66 | 1044.59 | 1043.54 | 1040.81 | 1037.98 | 1667.6
m1 = 1.643 | 1052.69 | 1051.69 | 1050.69 | 1050.12 | 1049.6 | 1048.48 | 1047.4 | 1044.56 | 1041.64 | 1680.3
m1 = 2.189 | 1064.99 | 1063.83 | 1062.7 | 1062.06 | 1061.5 | 1060.24 | 1059.05 | 1055.88 | 1052.65 | 1714.6
m1 = 2.803 | 1076.32 | 1075.11 | 1073.77 | 1073.02 | 1072.41 | 1071.01 | 1069.62 | 1066.1 | 1062.5 | 1742.3
